Values of other authors, collected in US9968621B2, “Parenteral compositions of celecoxib” (Dr. Reddy's Laboratories Ltd., priority 2014, dated 2018).

Details: after an oral dose

Structure (SMILES): Cc1ccc(-c2cc(C(F)(F)F)nn2-c2ccc(S(N)(=O)=O)cc2)cc1 [Celecoxib, 4-[5-(4-methylphenyl)-3-(trifluoromethyl)-1H-pyrazol-1-yl] benzenesulfonamide]
- Time of peak plasma levels: approximately 3 hrs
